According to PubChem BioAssay (NCI):
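Protocol summary: plate cells (96-well), add compound at 5 concentrations, incubate 48 h, interpolate endpoints linearly. TGI is the concentration that stops growth completely.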

Experiments:
Experiment in all cases: DTP human tumour cell line panel, 48 h
[1] = test system: 786-0 renal
[2] = test system: A498 renal
[3] = test system: A549 NSCLC
[4] = test system: ACHN renal
[5] = test system: BT-549 breast
[6] = test system: CCRF-CEM leukemia
[7] = test system: COLO 205 colon
[8] = test system: EKVX NSCLC
[9] = test system: HCC-2998 colon
[10] = test system: HCT-116 colon
[11] = test system: HCT-15 colon
[12] = test system: HL-60(TB) leukemia
[13] = test system: HOP-62 NSCLC
[14] = test system: HOP-92 NSCLC
[15] = test system: HS 578T breast
[16] = test system: HT29 colon
[17] = test system: IGROV1 ovarian
[18] = test system: K-562 leukemia
[19] = test system: KM12 colon
[20] = test system: LOX IMVI melanoma
[21] = test system: M14 melanoma
[22] = test system: MALME-3M melanoma
[23] = test system: MCF7 breast
[24] = test system: MDA-MB-231 breast
[25] = test system: MDA-MB-435
[26] = test system: MDA-N
[27] = test system: MOLT-4 leukemia
[28] = test system: NCI-H226 lung
[29] = test system: NCI-H23 lung
[30] = test system: NCI-H460 lung
[31] = test system: NCI-H522 lung
[32] = test system: NCI/ADR-RES ovarian
[33] = test system: OVCAR-3 ovarian
[34] = test system: OVCAR-4 ovarian
[35] = test system: OVCAR-5 ovarian
[36] = test system: OVCAR-8 ovarian
[37] = test system: PC-3 prostate
[38] = test system: RPMI-8226 leukemia
[39] = test system: RXF 393 renal
[40] = test system: SF-268 CNS
[41] = test system: SF-295 CNS
[42] = test system: SF-539 CNS
[43] = test system: SK-MEL-2 melanoma
[44] = test system: SK-MEL-28 melanoma
[45] = test system: SK-MEL-5 melanoma
[46] = test system: SK-OV-3 ovarian
[47] = test system: SN12C renal
[48] = test system: SNB-19 CNS
[49] = test system: SNB-75 CNS
[50] = test system: SR leukemia
[51] = test system: SW-620 colon
[52] = test system: T-47D breast
[53] = test system: TK-10 renal
[54] = test system: U251 CNS
[55] = test system: UACC-257 melanoma
[56] = test system: UACC-62 melanoma
[57] = test system: UO-31 renal
[58] = test system: CAKI-1 renal
[59] = test system: DU-145 prostate

## COc1ccc(-c2cc(-c3ccccc3)nc(N)n2)c(O)c1
[1]
  TGI: > 100 µM
[2]
  TGI: > 100 µM
[3]
  TGI: > 100 µM
[4]
  TGI: > 100 µM
[5]
  TGI: > 29.3 µM
[6]
  TGI: > 100 µM
[7]
  TGI: > 100 µM
[8]
  TGI: > 100 µM
[9]
  TGI: > 100 µM
[10]
  TGI: > 100 µM
[11]
  TGI: > 100 µM
[12]
  TGI: > 20.6 µM
[13]
  TGI: > 100 µM
[14]
  TGI: > 100 µM
[15]
  TGI: > 100 µM
[16]
  TGI: > 100 µM
[17]
  TGI: > 100 µM
[18]
  TGI: > 22.9 µM
[19]
  TGI: > 100 µM
[20]
  TGI: > 100 µM
[21]
  TGI: > 100 µM
[22]
  TGI: > 100 µM
[23]
  TGI: > 100 µM
[24]
  TGI: > 100 µM
[25]
  TGI: > 100 µM
[26]
  TGI: > 100 µM
[27]
  TGI: > 100 µM
[28]
  TGI: > 100 µM
[29]
  TGI: > 100 µM
[30]
  TGI: > 100 µM
[31]
  TGI: > 100 µM
[32]
  TGI: > 100 µM
[33]
  TGI: > 100 µM
[34]
  TGI: > 100 µM
[35]
  TGI: > 100 µM
[36]
  TGI: > 100 µM
[37]
  TGI: > 100 µM
[38]
  TGI: 5.76 µM
[39]
  TGI: > 100 µM
[40]
  TGI: > 100 µM
[41]
  TGI: > 100 µM
[42]
  TGI: > 100 µM
[43]
  TGI: > 100 µM
[44]
  TGI: > 100 µM
[45]
  TGI: > 100 µM
[46]
  TGI: > 100 µM
[47]
  TGI: > 100 µM
[48]
  TGI: > 100 µM
[49]
  TGI: > 100 µM
[50]
  TGI: > 26.2 µM
[51]
  TGI: > 100 µM
[52]
  TGI: > 100 µM
[53]
  TGI: > 100 µM
[54]
  TGI: > 100 µM
[55]
  TGI: > 100 µM
[56]
  TGI: > 100 µM
[57]
  TGI: > 23.3 µM

## O=C(CC(C(=O)c1cccs1)c1ccccc1)c1ccccc1O (stereo not drawn)
[1]
  TGI: > 38.4 µM
[3]
  TGI: > 100 µM
[4]
  TGI: > 44.8 µM
[5]
  TGI: > 100 µM
[58]
  TGI: > 67.3 µM
[6]
  TGI: > 100 µM
[7]
  TGI: > 100 µM
[59]
  TGI: > 100 µM
[8]
  TGI: > 100 µM
[9]
  TGI: > 100 µM
[10]
  TGI: > 100 µM
[11]
  TGI: > 100 µM
[12]
  TGI: > 44 µM
[13]
  TGI: > 48.1 µM
[14]
  TGI: > 38.9 µM
[15]
  TGI: > 22.9 µM
[16]
  TGI: > 100 µM
[17]
  TGI: > 57.3 µM
[18]
  TGI: 46.6 µM
[19]
  TGI: > 100 µM
[20]
  TGI: > 47.4 µM
[21]
  TGI: > 100 µM
[23]
  TGI: > 38.7 µM
[24]
  TGI: > 30 µM
[26]
  TGI: > 100 µM
[27]
  TGI: > 38.4 µM
[28]
  TGI: > 100 µM
[29]
  TGI: > 100 µM
[30]
  TGI: > 100 µM
[31]
  TGI: 10.4 µM
[32]
  TGI: > 25.3 µM
[33]
  TGI: > 100 µM
[34]
  TGI: > 64.2 µM
[35]
  TGI: > 100 µM
[36]
  TGI: > 100 µM
[37]
  TGI: > 100 µM
[38]
  TGI: > 100 µM
[39]
  TGI: 27.9 µM
[40]
  TGI: > 35.1 µM
[41]
  TGI: > 27.9 µM
[42]
  TGI: > 100 µM
[43]
  TGI: > 100 µM
[44]
  TGI: > 100 µM
[45]
  TGI: > 100 µM
[46]
  TGI: > 100 µM
[47]
  TGI: > 100 µM
[48]
  TGI: > 100 µM
[49]
  TGI: > 55.7 µM
[50]
  TGI: > 52.5 µM
[51]
  TGI: > 100 µM
[52]
  TGI: > 40 µM
[53]
  TGI: > 74.5 µM
[54]
  TGI: > 30.2 µM
[55]
  TGI: > 100 µM
[56]
  TGI: > 44.6 µM
[57]
  TGI: > 100 µM

## CC(C)[C@H]1NC(=O)[C@H]2N=C(O[C@@H]2C)[C@@H]2CCCN2C(=O)[C@H](Cc2ccccc2)NC(=O)[C@@H]2COC(=N2)[C@@H](Cc2ccccc2)NC(=O)[C@@H]2COC1=N2
[1]
  TGI: > 100 µM
[3]
  TGI: > 100 µM
[4]
  TGI: > 100 µM
[5]
  TGI: > 100 µM
[58]
  TGI: > 100 µM
[6]
  TGI: > 100 µM
[7]
  TGI: > 100 µM
[59]
  TGI: > 100 µM
[8]
  TGI: > 100 µM
[9]
  TGI: > 100 µM
[10]
  TGI: > 100 µM
[11]
  TGI: > 100 µM
[12]
  TGI: > 100 µM
[13]
  TGI: > 100 µM
[15]
  TGI: > 100 µM
[16]
  TGI: > 100 µM
[17]
  TGI: > 100 µM
[18]
  TGI: > 100 µM
[19]
  TGI: > 100 µM
[20]
  TGI: > 100 µM
[21]
  TGI: > 100 µM
[22]
  TGI: > 100 µM
[23]
  TGI: > 100 µM
[24]
  TGI: > 100 µM
[25]
  TGI: > 100 µM
[26]
  TGI: > 100 µM
[27]
  TGI: > 100 µM
[28]
  TGI: > 100 µM
[29]
  TGI: > 100 µM
[31]
  TGI: > 100 µM
[32]
  TGI: > 100 µM
[33]
  TGI: > 100 µM
[34]
  TGI: > 100 µM
[35]
  TGI: > 100 µM
[36]
  TGI: > 100 µM
[37]
  TGI: > 100 µM
[38]
  TGI: > 100 µM
[39]
  TGI: > 100 µM
[40]
  TGI: > 100 µM
[41]
  TGI: > 100 µM
[42]
  TGI: > 100 µM
[43]
  TGI: > 100 µM
[44]
  TGI: > 100 µM
[45]
  TGI: > 100 µM
[46]
  TGI: > 100 µM
[47]
  TGI: > 100 µM
[48]
  TGI: > 100 µM
[49]
  TGI: 75.6 µM
[51]
  TGI: > 100 µM
[52]
  TGI: > 100 µM
[53]
  TGI: > 100 µM
[54]
  TGI: > 100 µM
[55]
  TGI: > 100 µM
[56]
  TGI: > 100 µM
[57]
  TGI: > 100 µM
